Laboratory results published in patent publication US9751853B2, “Solid forms of 3-(5-amino-2-methyl-4-oxo-4H-quinazolin-3-yl)-piperidine-2,6-dione, and their pharmaceutical compositions and uses” (Celgene Corporation, priority 2011, dated 2017).
Entries after “also recorded” stand apart in the source; their conditions may differ. Read-outs that look alike come from different tables or passages of the source.

Tests used:
[1] = Equilibration/slurry experiments, solid form by XRPD; type: physicochemical
Method: Equilibration/Slurry and Evaporation: Equilibration and evaporation experiments were carried out by adding an excess of Compound A hydrochloride to about 2 mL of a test solvent. The resulting mixture was agitated for at least 24 hrs at about 25° C. or about 50° C. Upon reaching equilibrium, the saturated solution was removed and allowed to evaporate slowly in an open vial under nitrogen at about 25° C. and about 50° C., respectively. The solids resulting from the equilibration were filtered and dried in the air.
(§1) X-ray Powder Diffraction (XRPD): XRPD analysis was conducted on a Thermo ARL X'TRA™ X-ray powder diffractometer using Cu Kα radiation at 1.54 Å. The instrument was equipped with a fine focus X-ray tube. The voltage and amperage of X-ray generator were set at 45 kV and 40 mA, respectively. The divergence slices were set at 4 mm and 2 mm and the measuring slices were set at 0.5 mm and 0.2 mm. Diffracted radiation was detected by a peltier-cooled Si(Li) solid-state detector. A theta-two theta continuous scan at 2.40°/min (0.5 sec/0.02° step) from 1.5°2θ to 40°2θ was used. A sintered alumina standard was used to check the peak position. In general, positions of XRPD peaks are expected to individually vary on a measurement-by-measurement basis by about +0.2°2θ. In general, as understood in the art, two XRPD patterns match one another if the characteristic peaks of the first pattern are located at approximately the same positions as the characteristic peaks of the second pattern. As understood in the art, determining whether two XRPD patterns match or whether individual peaks in two XRPD patterns match may require consideration of individual variables and parameters such as, but not limited to, preferred orientation, phase impurities, degree of crystallinity, particle size, variation in diffractometer instrument setup, variation in XRPD data collection parameters, and/or variation in XRPD data processing, among others. The determination of whether two patterns match may be performed by eye and/or by computer analysis.

[2] = Approximate solubility in test solvents (visual/gravimetric); type: physicochemical; settings: thermodynamic from solid
Method: Solubility: A weighed sample of Compound A hydrochloride (about 50 mg) was treated with a known volume of a test solvent. The solvents used were either reagent or HPLC grade. The resulting mixture was agitated for at least 24 hours at about 25° C. If all of the solids appeared to be dissolved by visual inspection, the estimated solubilities were calculated based on the total volume of solvent used to give a complete solution. The actual solubilities may be greater than those calculated due to the use of large amount of solvent or to a slow rate of dissolution. If solids were present, the solubility was measured gravimetrically. A known volume of filtrate was evaporated to dryness and the weight of the residue was measured.

[3] = Stability upon compression; settings: 2000-psi pressure for about 1 minute
[4] = Cooling recrystallization, solid form by XRPD; type: physicochemical; settings: no antisolvent
Method: Cooling Recrystallization: The selected solvents (THF/water, MeCN/water, MeOH/0.1N HCl, and EtOH/0.1N HCl) were saturated with Compound A hydrochloride at about 50-70° C. Once the solids were completely dissolved, the solution was rapidly cooled by placing into a refrigerator (about 0-5° C.). Solids were isolated after 1 to 3 days.
as §1

[5] = Chemical stability upon storage

Cc1nc2cccc(N)c2c(=O)n1C1CCC(=O)NC1=O.Cl (stereo not drawn) [Form A1, 3-(5-amino-2-methyl-4-oxo-4H-quinazolin-3-yl)-piperidine-2,6-dione hydrochloride]
XRPD Result after equilibration ([1]; slurry at 50° C., 2-Propanol): Form A1
XRPD Result after equilibration ([1]; slurry at 50° C., Acetone): Form A1
XRPD Result after equilibration ([1]; slurry at 50° C., Acetonitrile): Form A1
XRPD Result after equilibration ([1]; slurry at 50° C., Acetonitrile/Water (1:1)): Form A + Form A1
XRPD Result after equilibration ([1]; slurry at 50° C., Ethanol): Form A1
XRPD Result after equilibration ([1]; slurry at 50° C., Ethanol/Water (1:1)): Form A + Form A1
XRPD Result after equilibration ([1]; slurry at 50° C., Ethyl acetate): Form A1
XRPD Result after equilibration ([1]; slurry at 50° C., Heptane): Form A1
XRPD Result after equilibration ([1]; slurry at 50° C., Methanol): Form A1
XRPD Result after equilibration ([1]; slurry at 50° C., Methyl ethyl ketone): Form A1
XRPD Result after equilibration ([1]; slurry at 50° C., Tetrahydrofuran): Form A1
XRPD Result after equilibration ([1]; slurry at 50° C., Tetrahydrofuran/Water (1:1)): Form A1
XRPD Result after equilibration ([1]; slurry at 50° C., Toluene): Form A1
XRPD Result after equilibration ([1]; slurry at 50° C., Water): Form A + Form A1
XRPD Result after equilibration ([1]; slurry at 50° C., n-Butanol): Form A1
XRPD Result after equilibration ([1]; slurry at room temperature, 2-Propanol): Form A1
XRPD Result after equilibration ([1]; slurry at room temperature, Acetone): Form A1
XRPD Result after equilibration ([1]; slurry at room temperature, Acetonitrile): Form A1
XRPD Result after equilibration ([1]; slurry at room temperature, Acetonitrile/Water (1:1)): Form A + Form A1
XRPD Result after equilibration ([1]; slurry at room temperature, Ethanol): Form A1
XRPD Result after equilibration ([1]; slurry at room temperature, Ethanol/Water (1:1)): Form A + Form A1
XRPD Result after equilibration ([1]; slurry at room temperature, Ethyl acetate): Form A1
XRPD Result after equilibration ([1]; slurry at room temperature, Heptane): Form A1
XRPD Result after equilibration ([1]; slurry at room temperature, Methanol): Form A1
XRPD Result after equilibration ([1]; slurry at room temperature, Methyl ethyl ketone): Form A1
XRPD Result after equilibration ([1]; slurry at room temperature, Methyl t-butyl ether): Form A1
XRPD Result after equilibration ([1]; slurry at room temperature, Methylene chloride): Form A1
XRPD Result after equilibration ([1]; slurry at room temperature, Tetrahydrofuran): Form A1
XRPD Result after equilibration ([1]; slurry at room temperature, Tetrahydrofuran/Water (1:1)): Form A + Form A1
XRPD Result after equilibration ([1]; slurry at room temperature, Toluene): Form A1
XRPD Result after equilibration ([1]; slurry at room temperature, Water): Form A + Form A1
XRPD Result after equilibration ([1]; slurry at room temperature, n-Butanol): Form A1
solubility ([2]; aqueous with cosolvent or surfactant or cyclodextrin, EtOH/water (1:1), about 25° C., read-out: approximate solubility): 3000 to 10000 µg/mL
solubility ([2]; aqueous with cosolvent or surfactant or cyclodextrin, MeCN/water (1:1), about 25° C., read-out: approximate solubility): > 25000 µg/mL
solubility ([2]; aqueous with cosolvent or surfactant or cyclodextrin, THF/water (1:1), about 25° C., read-out: approximate solubility): > 25000 µg/mL
solubility ([2]; aqueous with cosolvent or surfactant or cyclodextrin, acetonitrile:water, solvent system for scaleup, read-out: solubility): > 50000 µg/mL
solubility ([2]; organic solvent or mixture, CH2Cl2, about 25° C., read-out: approximate solubility): 3000 to 10000 µg/mL
solubility ([2]; organic solvent or mixture, MeOH, about 25° C., read-out: approximate solubility): 3000 to 10000 µg/mL
solubility ([2]; organic solvent or mixture, THF, about 25° C., read-out: approximate solubility): 3000 to 10000 µg/mL
solubility ([2]; organic solvent or mixture, other organic solvents tested, about 25° C., read-out: approximate solubility): < 3000 µg/mL
solubility ([2]; water, about 25° C., read-out: approximate solubility): 3000 to 10000 µg/mL
stability upon compression [3]: stable
XRPD Result after recrystallization ([4]; EtOH/0.1N HCl): Form A1
XRPD Result after recrystallization ([4]; MeCN/H2O, hydrochloride): Form A1 + Form A
XRPD Result after recrystallization ([4]; MeOH/0.1N HCl): Form A1
XRPD Result after recrystallization ([4]; THF/H2O, hydrochloride): Complete salt dissociation; also recorded: Form A
chemical stability upon storage ([5]; 40° C. and 75% relative humidity (RH)): chemically stable
chemical stability upon storage ([5]; 40° C. under a nitrogen atmosphere): chemically stable
chemical stability upon storage ([5]; 40° C. under vacuum): chemically stable
chemical stability upon storage ([5]; 60° C. in a closed container): chemically stable
chemical stability upon storage ([5]; room temperature, exposed to air and light, for 6 weeks): chemically stable
